One assay relates to MKK4 in the liver. The assay is described as follows: inhibition of MKK4 in vivo by small inhibitors administered to mice. Conditions: dosage efficient for in vivo inactivation of MKK4. As to the method: In the alternative to inhibition of MKK4 activity in liver tissue by inhibitory RNA, SP600125, myricitine, Genistein, or PD98059 were used for inactivating MKK4 in the liver. Generally, SP600125, myricitine, Genistein, or PD98059 were administered to mice at a dosage efficient for in vivo inactivation of MKK4. Preferably, the dosage was efficient to inactivate at least 80%, more preferably at least 90 or 95% of mean in vivo MKK4 activity.
Regarding `O=c1c(-c2ccc(O)cc2)coc2cc(O)cc(O)c12` [Genistein], the liver regeneration result is on record as “significant increase in liver regeneration”, the proliferation result is “increase in proliferation” and the “protection against induced apoptosis” value was “protection against induced apoptosis”. In the case of `COc1cccc(-c2cc(=O)c3ccccc3o2)c1N` [PD98059], the liver regeneration entry was “significant increase in liver regeneration”, the proliferation result is “increase in proliferation” and the “protection against induced apoptosis” value is given as “protection against induced apoptosis”. The corresponding values for `O=c1c(O)c(-c2cc(O)c(O)c(O)c2)oc2cc(O)cc(O)c12` [myricitine] are “significant increase in liver regeneration”, “increase in proliferation” and “protection against induced apoptosis”.

Another assay addresses T1, purified MKK4 protein (Homo sapiens, UniProt P45985).
T1 construct: made in house
T1 sequence (P45985 1-399): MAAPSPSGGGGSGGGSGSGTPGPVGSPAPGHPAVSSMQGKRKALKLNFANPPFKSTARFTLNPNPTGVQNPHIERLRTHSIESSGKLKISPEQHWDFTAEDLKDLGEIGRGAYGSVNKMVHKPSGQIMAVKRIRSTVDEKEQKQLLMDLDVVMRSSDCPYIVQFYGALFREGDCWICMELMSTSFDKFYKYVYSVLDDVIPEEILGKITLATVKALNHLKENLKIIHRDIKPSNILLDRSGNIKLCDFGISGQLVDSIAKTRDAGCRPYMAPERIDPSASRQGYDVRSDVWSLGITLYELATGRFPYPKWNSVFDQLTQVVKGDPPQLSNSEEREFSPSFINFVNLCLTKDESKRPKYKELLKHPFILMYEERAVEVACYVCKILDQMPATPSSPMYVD
As to the kind of experiment: in vitro MKK4 kinase assay, phosphorylation of substrate JNK1a1 with 32P-ATP. In kind it is biochemical. Conditions: positive control, remaining activity. The method, then:
The inhibitory effect of compounds against MKK4 was analysed in an in vitro assay using purified MKK4 protein, e.g. obtained from a cell line that was genetically manipulated to over-express MKK4 from an expression cassette containing the nucleotide sequence SEQ ID NO: 1204 as a coding sequence and affinity purification using e.g. an antibody directed against MKK4 protein.
In the assay, purified active MKK4 protein was incubated with its substrate JNK1a1 and ^32P-labelled gATP (5 μCi, approx. 10 μM), without additional active compound, with the small inhibitory compound, or with Genistein as a positive control. For the assay, kinase assay buffer (20 mM HEPES pH 7.5; 10 mM MgCl2; 1 mg/ml BSA; 1 mM Na3VO4; 1 mM DTT) was used. An inhibitory effect of the small inhibitory compound (final concentration 50 μM) was detected as a reduction of the phosphorylation activity of MKK4 protein on its substrate JNK1a1 by measuring the amount of radioactive (^32P) phosphate in JNK1a1. Phosphorylation of JNK1a1 was measured in the presence of 2 ml scintillation cocktail per sample by using a scintillation counter (Wallac, Liquid Scintillation Counter). In this assay, Genistein gave an inhibition to approx. 80% activity compared to the assay without additional active compound.
For `O=c1c(-c2ccc(O)cc2)coc2cc(O)cc(O)c12` [Genistein], the “inhibition to % activity compared to the assay without additional active compound” value is on record as “approx. 80%”.

The assay is the same for the next values; noted with them: small inhibitory compound final concentration 50 μM, 32P-gATP approx. 10 μM, value is remaining activity, read-out: Inhibition, relative activity of MKK4 compared to control (without additional compound) (%).
Regarding `O=C(O)c1ccc2c3c(ncnc13)-c1ccccc1C2=O` [BAS00368055, 7-oxobenzo[e]perimidine-4-carboxylic acid], the remaining activity at 50 µM came out at 66.2%.

Regarding `Cn1c(O)c(C(=O)Nc2ccncc2)c(=O)c2ccccc21` [BAS00525963, 2-hydroxy-1-methyl-4-oxo-N-pyridin-4-ylquinoline-3-carboxamide], the remaining activity at 50 µM worked out at 72.6%. Still for that read-out and setting: for `O=[N+]([O-])c1cccc(/C=N/c2ccc3[nH]ncc3c2)c1O` [BAS00697444, 2-(1H-indazol-5-yliminomethyl)-6-nitrophenolate] the value was 79%.

Take `COc1cc([N+](=O)[O-])cc(/C=N/c2ccc3[nH]ncc3c2)c1O` [BAS00697462, 2-(1H-indazol-5-yliminomethyl)-6-methoxy-4-nitrophenolate]: the remaining activity at 50 µM came to 71.1%. Still for that read-out and setting: under `COc1nc(Oc2cccc(/C=C(\C#N)c3nn(CCO)c(N)c3C#N)c2)nc(N2CCCCC2)n1` [BAS00896568, 5-amino-3-[(Z)-1-cyano-2-[3-[(4-methoxy-6-piperidin-1-yl-1,3,5-triazin-2-yl)oxy]phenyl]ethenyl]-1-(2-hydroxyethyl)pyrazole-4-carbonitrile] stands 58.4%; under `Cc1n[nH]c(C)c1CCc1cc(O)n2ncc(C(=O)Nc3ccccc3)c2n1` [SYN22174524, 5-[2-(3,5-dimethyl-1H-pyrazol-4-yl)ethyl]-7-oxo-N-phenyl-1H-pyrazolo[1,5-a]pyrimidine-3-carboxamide], 47.8%; under `Cc1n[nH]c(C)c1CCc1cc(=O)n2ncc(-c3ccc(F)cc3)c2[nH]1` [SYN22174787, 5-[2-(3,5-dimethyl-1H-pyrazol-4-yl)ethyl]-3-(4-fluorophenyl)-1H-pyrazolo[1,5-a]pyrimidin-7-one], 41.5%. Same read-out and setting: under `Cc1ccc(-c2cnn3c(=O)cc(CCc4c(C)n[nH]c4C)[nH]c23)cc1` [SYN22175977, 5-[2-(3,5-dimethyl-1H-pyrazol-4-yl)ethyl]-3-(4-methylphenyl)-1H-pyrazolo[1,5-a]pyrimidin-7-one] stands 55.5%; under `COCc1nn2c(=O)cc(CCc3c(C)n[nH]c3C)[nH]c2c1-c1ccc(Cl)cc1` [SYN22176267, 3-(4-chlorophenyl)-5-[2-(3,5-dimethyl-1H-pyrazol-4-yl)ethyl]-2-(methoxymethyl)-1H-pyrazolo[1,5-a]pyrimidin-7-one], 59.1%; under `COCc1nn2c(=O)cc(CCc3c(C)n[nH]c3C)[nH]c2c1-c1ccc(C)cc1` [SYN22176367, 5-[2-(3,5-dimethyl-1H-pyrazol-4-yl)ethyl]-2-(methoxymethyl)-3-(4-methylphenyl)-1H-pyrazolo[1,5-a]pyrimidin-7-one], 49.9%. Consider `COc1cccc(-c2nn3c(=O)cc(CCc4c(C)n[nH]c4C)[nH]c3c2C)c1` [SYN22176842, 5-[2-(3,5-dimethyl-1H-pyrazol-4-yl)ethyl]-2-(3-methoxyphenyl)-3-methyl-pyrazolo[5,1-b]pyrimidin-7-ol], for which the remaining activity at 50 µM came to 54.9%. Same read-out and setting: under `COc1ccccc1-c1nn2c(=O)cc(CCc3c(C)n[nH]c3C)[nH]c2c1C` [SYN22176990, 5-[2-(3,5-dimethyl-1H-pyrazol-4-yl)ethyl]-2-(2-methoxyphenyl)-3-methyl-pyrazolo[5,1-b]pyrimidin-7-ol] stands 58.2%; under `Cc1n[nH]c(C)c1CCc1cc(=O)n2nc(C)c(-c3ccc(Cl)cc3)c2[nH]1` [SYN22177890, 3-(4-chlorophenyl)-5-[2-(3,5-dimethyl-1H-pyrazol-4-yl)ethyl]-2-methyl-1H-pyrazolo[1,5-a]pyrimidin-7-one], 56.3%. Same read-out and setting: for `Cc1ccc(NC(=O)c2cccc(N(C)C)c2)cc1NC(=O)c1ccc(O)cc1` [ZM 336372, 3-(Dimethylamino)-N-[3-[(4-hydroxybenzoyl)-amino]-4-methylphenyl]benzamide, reference compound] the value was 54.2%.

These data come from US9186381B2, “Medicament for liver regeneration and for treatment of liver failure” (Helmholtz Zentrum Fuer Infektionsforschung GmbH, priority 2011, dated 2015).
